Source: publication PMC5601486, “Identification of 4-phenylquinolin-2(1H)-one as a specific allosteric inhibitor of Akt” (Scientific Reports, 2017)

Tests used:
Test in all cases: KINOMEscan
Conditions in all cases: 50000 nM
BMPR1A = tested on: BMPR1A
Procedure: KINOMEscan™ selectivity screen
(§1) The assay was perfor med at DiscoveRx Corporation according the methods published previously5. Briefly, Kinase-tagged T7 phage strains were grown in parallel in an E. coli host derived from the BL21 strain. E. coli were grown to log-phase and infected with T7 phage from a frozen stock and incubated with shaking at 32°C until lysis (90-150 minutes). The kinases were produced in HEK-293 cells and subsequently tagged with DNA for qPCR detection. Streptavidin-coated magnetic beads were treated with biotinylated small molecule ligands to generate affinity resins for kinase
(§2) inhibitor or DMSO control was performed in polypropylene 384-well plates for 1 hr at room temperature. After wash with PBS buffer containing 0.05% Tween 20, the beads were incubated in elution buffer (PBS containing 0.05 % Tween 20 and 0.5 μM non-biotinylated affinity ligand) for 30 minutes at room temperature. The kinase concentration in the eluates was measured by qPCR.

CDK4 = tested on: CDK4
Procedure: KINOMEscan™ selectivity screen
(§3) Briefly, Kinase-tagged T7 phage strains were grown in parallel in an E. coli host derived from the BL21 strain. E. coli were grown to log-phase and infected with T7 phage from a frozen stock and incubated with shaking at 32°C until lysis (90-150 minutes). The kinases were produced in HEK-293 cells and subsequently tagged with DNA for qPCR detection. Streptavidin-coated magnetic beads were treated with biotinylated small molecule ligands to generate affinity resins for kinase
as §2

EGFR(T790M) = tested on: EGFR(T790M)
Procedure: KINOMEscan™ selectivity screen
as §1, §2

PLK1 = tested on: PLK1
Procedure: KINOMEscan™ selectivity screen
as §1, §2

PRKG2 = tested on: PRKG2
Procedure: KINOMEscan™ selectivity screen
as §1, §2

SRPK3 = tested on: SRPK3
Procedure: KINOMEscan™ selectivity screen
as §1, §2

TIE2 = tested on: TIE2
Procedure: KINOMEscan™ selectivity screen
as §1, §2

TNK2 = tested on: TNK2
Procedure: KINOMEscan™ selectivity screen
as §1, §2

ROS1 = tested on: ROS1
Procedure: KINOMEscan™ selectivity screen
as §1, §2

DCAMKL2 = tested on: DCAMKL2
Procedure: KINOMEscan™ selectivity screen
as §1, §2

LIMK2 = tested on: LIMK2
Procedure: KINOMEscan™ selectivity screen
as §1, §2

p38-beta = tested on: p38-beta
Procedure: KINOMEscan™ selectivity screen
as §1, §2

LKB1 = tested on: LKB1
Procedure: KINOMEscan™ selectivity screen
(§4) The assay was perfor med at DiscoveRx Corporation according the methods published previously5. […] The kinases were produced in HEK-293 cells and subsequently tagged with DNA for qPCR detection. Streptavidin-coated magnetic beads were treated with biotinylated small molecule ligands to generate affinity resins for kinase
as §2

MET(M1250T) = tested on: MET(M1250T)
Procedure: KINOMEscan™ selectivity screen
as §4, §2

ABL2 = tested on: ABL2
Procedure: KINOMEscan™ selectivity screen
as §1, §2

AKT2 = tested on: AKT2
Procedure: KINOMEscan™ selectivity screen
as §3, §2

NEK6 = tested on: NEK6
Procedure: KINOMEscan™ selectivity screen
as §1, §2

CSNK1G1 = tested on: CSNK1G1
Procedure: KINOMEscan™ selectivity screen
as §1, §2

NDR2 = tested on: NDR2
Procedure: as §3, §2

SRMS = tested on: SRMS
Procedure: as §3, §2

ERBB4 = tested on: ERBB4
Procedure: KINOMEscan™ selectivity screen
as §1, §2

ERK4 = tested on: ERK4
Procedure: KINOMEscan™ selectivity screen
as §1, §2

BUB1 = tested on: BUB1
Procedure: KINOMEscan™ selectivity screen
as §1, §2

SRPK2 = tested on: SRPK2
Procedure: KINOMEscan™ selectivity screen
as §4, §2

WNK2 = tested on: WNK2
Procedure: KINOMEscan™ selectivity screen
as §4, §2

IKK-beta = tested on: IKK-beta
Procedure: KINOMEscan™ selectivity screen
as §1, §2

p38-alpha = tested on: p38-alpha
Procedure: KINOMEscan™ selectivity screen
as §3, §2

[1] = tested on: JAK1(JH1domain-catalytic)
Procedure: KINOMEscan™ selectivity screen
as §1, §2

VRK2 = tested on: VRK2
Procedure: KINOMEscan™ selectivity screen
as §1, §2

PAK3 = tested on: PAK3
Procedure: KINOMEscan™ selectivity screen
as §1, §2

PDPK1 = tested on: PDPK1
Procedure: KINOMEscan™ selectivity screen
as §1, §2

PFTAIRE2 = tested on: PFTAIRE2
Procedure: KINOMEscan™ selectivity screen
as §1, §2

ALK(C1156Y) = tested on: ALK(C1156Y)
Procedure: KINOMEscan™ selectivity screen
as §1, §2

IGF1R = tested on: IGF1R
Procedure: KINOMEscan™ selectivity screen
as §4, §2

MARK1 = tested on: MARK1
Procedure: KINOMEscan™ selectivity screen
as §4, §2

PRKCH = tested on: PRKCH
Procedure: KINOMEscan™ selectivity screen
(§5) The kinases were produced in HEK-293 cells and subsequently tagged with DNA for qPCR detection. Streptavidin-coated magnetic beads were treated with biotinylated small molecule ligands to generate affinity resins for kinase
as §2

STK16 = tested on: STK16
Procedure: KINOMEscan™ selectivity screen
as §5, §2

CTK = tested on: CTK
Procedure: KINOMEscan™ selectivity screen
as §3, §2

[2] = tested on: ABL1(F317I)-phosphorylated
Procedure: KINOMEscan™ selectivity screen
as §1, §2

CDK4-cyclinD3 = tested on: CDK4-cyclinD3
Procedure: KINOMEscan™ selectivity screen
as §3, §2

MAP3K15 = tested on: MAP3K15
Procedure: KINOMEscan™ selectivity screen
as §3, §2

RET(M918T) = tested on: RET(M918T)
Procedure: KINOMEscan™ selectivity screen
as §1, §2

CLK1 = tested on: CLK1
Procedure: KINOMEscan™ selectivity screen
as §3, §2

NEK3 = tested on: NEK3
Procedure: KINOMEscan™ selectivity screen
as §1, §2

PIM2 = tested on: PIM2
Procedure: KINOMEscan™ selectivity screen
as §1, §2

PIM3 = tested on: PIM3
Procedure: KINOMEscan™ selectivity screen
as §1, §2

LRRK2(G2019S) = tested on: LRRK2(G2019S)
Procedure: KINOMEscan™ selectivity screen
as §1, §2

ARK5 = tested on: ARK5
Procedure: KINOMEscan™ selectivity screen
as §3, §2

HASPIN = tested on: HASPIN
Procedure: KINOMEscan™ selectivity screen
as §1, §2

[3] = tested on: ABL1(E255K)-phosphorylated
Procedure: KINOMEscan™ selectivity screen
as §1, §2

IRAK1 = tested on: IRAK1
Procedure: KINOMEscan™ selectivity screen
as §1, §2

FLT3(D835H) = tested on: FLT3(D835H)
Procedure: KINOMEscan™ selectivity screen
as §1, §2

Oc1cc(-c2ccccc2)c2ccccc2n1 [G7, 4-phenylquinolin-2(1H)-one]
Percent Control (BMPR1A): 100%
Percent Control (CDK4): 100%
Percent Control (EGFR(T790M)): 100%
Percent Control (PLK1): 100%
Percent Control (PRKG2): 100%
Percent Control (SRPK3): 100%
Percent Control (TIE2): 100%
Percent Control (TNK2): 99%
Percent Control (ROS1): 98%
Percent Control (DCAMKL2): 97%
Percent Control (LIMK2): 97%
Percent Control (p38-beta): 97%
Percent Control (LKB1): 96%
Percent Control (MET(M1250T)): 96%
Percent Control (ABL2): 94%
Percent Control (AKT2): 93%
Percent Control (NEK6): 92%
Percent Control (CSNK1G1): 89%
Percent Control (NDR2): 88%
Percent Control (SRMS): 88%
Percent Control (ERBB4): 86%
Percent Control (ERK4): 86%
Percent Control (BUB1): 85%
Percent Control (SRPK2): 84%
Percent Control (WNK2): 84%
Percent Control (IKK-beta): 83%
Percent Control (p38-alpha): 83%
Percent Control [1]: 82%
Percent Control (VRK2): 82%
Percent Control (PAK3): 81%
Percent Control (PDPK1): 81%
Percent Control (PFTAIRE2): 81%
Percent Control (ALK(C1156Y)): 80%
Percent Control (IGF1R): 76%
Percent Control (MARK1): 76%
Percent Control (PRKCH): 75%
Percent Control (STK16): 75%
Percent Control (CTK): 74%
Percent Control [2]: 72%
Percent Control (CDK4-cyclinD3): 71%
Percent Control (MAP3K15): 71%
Percent Control (RET(M918T)): 70%
Percent Control (CLK1): 69%
Percent Control (NEK3): 68%
Percent Control (PIM2): 68%
Percent Control (PIM3): 64%
Percent Control (LRRK2(G2019S)): 63%
Percent Control (ARK5): 59%
Percent Control (HASPIN): 57%
Percent Control [3]: 56%
Percent Control (IRAK1): 53%
Percent Control (FLT3(D835H)): 34%
